Reference: article PMC9081086, “Stapling strategy enables improvement of antitumor activity and proteolytic stability of host-defense peptide hymenochirin-1B” (RSC Advances, 2018)

Experiment: all-hydrocarbon stapling by ring-closing olefin metathesis between S5/S5 (i,i+4) or R8/S5 (i,i+7) olefinic residues, Grubbs 1st-generation catalyst (10 mM in DCE per text; 6 mM per schemes), 2 x 2 h, on Rink Amide MBHA resin
Conditions: the molecule shown is the open-chain precursor, 21-membered ring, 1,2-dichloroethane, 35.0 °C, 60 steps

Compound	ring closure, overall yield
final: H-I-K-L-S-P-[S5]-T-K-D-[S5]-L-K-K-V-L-K-G-[S5]-I-K-G-[S5]-I-A-V-A-K-M-V-NH2; 1st RCM on Fmoc-[S5]-I-K-G-[S5]-I-A-V-A-K-M-V-resin, 2nd RCM on Fmoc-[S5]-T-K-D-[S5]-L-K-K-V-L-K-G-[S5]-I-K-G-[S5]-I-A-V-A-K-M-V-resin (C-terminal S5 pair already stapled)	5.43%

Same assay, conditions: the molecule shown is the open-chain precursor, 21-membered ring, 1,2-dichloroethane, 35.0 °C, 4.0 h, 60 steps

Compound	ring closure, overall yield
C=CCCC[C@](C)(NC(=O)[C@H](CCCCNC(=O)OC(C)(C)C)NC(=O)[C@@H](NC(=O)[C@H](CCC(=O)OC(C)(C)C)NC(=O)[C@](C)(CCCC=C)NC(=O)[C@H](COC(C)(C)C)NC(=O)[C@H](CC(C)C)NC(=O)[C@H](CCCCNC(=O)OC(C)(C)C)NC(=O)[C@@H](NC(=O)OCC1c2ccccc2-c2ccccc21)[C@@H](C)CC)[C@@H](C)OC(C)(C)C)C(=O)N[C@@H](CC(=O)NC(c1ccccc1)(c1ccccc1)c1ccccc1)C(=O)N[C@@H](CC(C)C)C(=O)N[C@@H](CCCCNC(=O)OC(C)(C)C)C(=O)N[C@@H](CCCCNC(=O)OC(C)(C)C)C(=O)N[C@H](C(=O)N[C@@H](CC(C)C)C(=O)N[C@@H](CCCCNC(=O)OC(C)(C)C)C(=O)NCC(=O)N[C@@H](C)C(=O)N[C@H](C(=O)N[C@@H](CCCCNC(=O)OC(C)(C)C)C(=O)NCC(=O)N[C@@H](C)C(=O)N[C@H](C(=O)N[C@@H](C)C(=O)N[C@H](C(=O)N[C@@H](C)C(=O)N[C@@H](CCCCNC(=O)OC(C)(C)C)C(=O)N[C@@H](CCSC)C(=O)N[C@H](C(N)=O)C(C)C)C(C)C)[C@@H](C)CC)[C@@H](C)CC)C(C)C	11.4%
C=CCCC[C@](C)(NC(=O)CNC(=O)[C@H](CCCCNC(=O)OC(C)(C)C)NC(=O)[C@@H](NC(=O)[C@H](C)NC(=O)CNC(=O)[C@H](CCCCNC(=O)OC(C)(C)C)NC(=O)[C@H](CC(C)C)NC(=O)[C@@H](NC(=O)[C@H](CCCCNC(=O)OC(C)(C)C)NC(=O)[C@H](CCCCNC(=O)OC(C)(C)C)NC(=O)[C@H](CC(C)C)NC(=O)[C@H](CC(=O)NC(c1ccccc1)(c1ccccc1)c1ccccc1)NC(=O)[C@H](CC(=O)OC(C)(C)C)NC(=O)[C@H](CCCCNC(=O)OC(C)(C)C)NC(=O)[C@@H](NC(=O)[C@H](CCC(=O)OC(C)(C)C)NC(=O)[C@@H]1CCCN1C(=O)[C@H](COC(C)(C)C)NC(=O)[C@H](CC(C)C)NC(=O)[C@H](CCCCNC(=O)OC(C)(C)C)NC(=O)[C@@H](NC(=O)OCC1c2ccccc2-c2ccccc21)[C@@H](C)CC)[C@@H](C)OC(C)(C)C)C(C)C)[C@@H](C)CC)C(=O)N[C@H](C(=O)N[C@@H](C)C(=O)N[C@H](C(=O)N[C@@](C)(CCCC=C)C(=O)N[C@@H](CCCCNC(=O)OC(C)(C)C)C(=O)N[C@@H](CCSC)C(=O)N[C@H](C(N)=O)C(C)C)C(C)C)[C@@H](C)CC	13.1%
C=CCCC[C@](C)(NC(=O)[C@H](CCCCNC(=O)OC(C)(C)C)NC(=O)[C@H](CC(C)C)NC(=O)[C@@H](NC(=O)[C@H](CCCCNC(=O)OC(C)(C)C)NC(=O)[C@H](CCCCNC(=O)OC(C)(C)C)NC(=O)[C@H](CC(C)C)NC(=O)[C@H](CC(=O)NC(c1ccccc1)(c1ccccc1)c1ccccc1)NC(=O)[C@H](CC(=O)OC(C)(C)C)NC(=O)[C@H](CCCCNC(=O)OC(C)(C)C)NC(=O)[C@@H](NC(=O)[C@H](CCC(=O)OC(C)(C)C)NC(=O)[C@@H]1CCCN1C(=O)[C@H](COC(C)(C)C)NC(=O)[C@H](CC(C)C)NC(=O)[C@H](CCCCNC(=O)OC(C)(C)C)NC(=O)[C@@H](NC(=O)OCC1c2ccccc2-c2ccccc21)[C@@H](C)CC)[C@@H](C)OC(C)(C)C)C(C)C)C(=O)N[C@@H](C)C(=O)N[C@H](C(=O)N[C@@H](CCCCNC(=O)OC(C)(C)C)C(=O)N[C@@](C)(CCCC=C)C(=O)N[C@@H](C)C(=O)N[C@H](C(=O)N[C@@H](C)C(=O)N[C@H](C(=O)N[C@@H](C)C(=O)N[C@@H](CCCCNC(=O)OC(C)(C)C)C(=O)N[C@@H](CCSC)C(=O)N[C@H](C(N)=O)C(C)C)C(C)C)[C@@H](C)CC)[C@@H](C)CC	18.5%
C=CCCC[C@](C)(NC(=O)[C@H](CC(=O)OC(C)(C)C)NC(=O)[C@H](CCCCNC(=O)OC(C)(C)C)NC(=O)[C@@H](NC(=O)[C@](C)(CCCC=C)NC(=O)[C@@H]1CCCN1C(=O)[C@H](COC(C)(C)C)NC(=O)[C@H](CC(C)C)NC(=O)[C@H](CCCCNC(=O)OC(C)(C)C)NC(=O)[C@@H](NC(=O)OCC1c2ccccc2-c2ccccc21)[C@@H](C)CC)[C@@H](C)OC(C)(C)C)C(=O)N[C@@H](CC(C)C)C(=O)N[C@@H](CCCCNC(=O)OC(C)(C)C)C(=O)N[C@@H](CCCCNC(=O)OC(C)(C)C)C(=O)N[C@H](C(=O)N[C@@H](CC(C)C)C(=O)N[C@@H](CCCCNC(=O)OC(C)(C)C)C(=O)NCC(=O)N[C@@H](C)C(=O)N[C@H](C(=O)N[C@@H](CCCCNC(=O)OC(C)(C)C)C(=O)NCC(=O)N[C@@H](C)C(=O)N[C@H](C(=O)N[C@@H](C)C(=O)N[C@H](C(=O)N[C@@H](C)C(=O)N[C@@H](CCCCNC(=O)OC(C)(C)C)C(=O)N[C@@H](CCSC)C(=O)N[C@H](C(N)=O)C(C)C)C(C)C)[C@@H](C)CC)[C@@H](C)CC)C(C)C	6.43%
C=CCCC[C@](C)(NC(=O)CNC(=O)[C@H](CCCCNC(=O)OC(C)(C)C)NC(=O)[C@@H](NC(=O)[C@](C)(CCCC=C)NC(=O)CNC(=O)[C@H](CCCCNC(=O)OC(C)(C)C)NC(=O)[C@H](CC(C)C)NC(=O)[C@@H](NC(=O)[C@H](CCCCNC(=O)OC(C)(C)C)NC(=O)[C@H](CCCCNC(=O)OC(C)(C)C)NC(=O)[C@H](CC(C)C)NC(=O)[C@H](CC(=O)NC(c1ccccc1)(c1ccccc1)c1ccccc1)NC(=O)[C@H](CC(=O)OC(C)(C)C)NC(=O)[C@H](CCCCNC(=O)OC(C)(C)C)NC(=O)[C@@H](NC(=O)[C@H](CCC(=O)OC(C)(C)C)NC(=O)[C@@H]1CCCN1C(=O)[C@H](COC(C)(C)C)NC(=O)[C@H](CC(C)C)NC(=O)[C@H](CCCCNC(=O)OC(C)(C)C)NC(=O)[C@@H](NC(=O)OCC1c2ccccc2-c2ccccc21)[C@@H](C)CC)[C@@H](C)OC(C)(C)C)C(C)C)[C@@H](C)CC)C(=O)N[C@H](C(=O)N[C@@H](C)C(=O)N[C@H](C(=O)N[C@@H](C)C(=O)N[C@@H](CCCCNC(=O)OC(C)(C)C)C(=O)N[C@@H](CCSC)C(=O)N[C@H](C(N)=O)C(C)C)C(C)C)[C@@H](C)CC	19.9%
C=CCCC[C@](C)(NC(=O)[C@@H](NC(=O)[C@H](C)NC(=O)CNC(=O)[C@H](CCCCNC(=O)OC(C)(C)C)NC(=O)[C@H](CC(C)C)NC(=O)[C@@H](NC(=O)[C@H](CCCCNC(=O)OC(C)(C)C)NC(=O)[C@H](CCCCNC(=O)OC(C)(C)C)NC(=O)[C@H](CC(C)C)NC(=O)[C@H](CC(=O)NC(c1ccccc1)(c1ccccc1)c1ccccc1)NC(=O)[C@H](CC(=O)OC(C)(C)C)NC(=O)[C@H](CCCCNC(=O)OC(C)(C)C)NC(=O)[C@@H](NC(=O)[C@H](CCC(=O)OC(C)(C)C)NC(=O)[C@@H]1CCCN1C(=O)[C@H](COC(C)(C)C)NC(=O)[C@H](CC(C)C)NC(=O)[C@H](CCCCNC(=O)OC(C)(C)C)NC(=O)[C@@H](NC(=O)OCC1c2ccccc2-c2ccccc21)[C@@H](C)CC)[C@@H](C)OC(C)(C)C)C(C)C)[C@@H](C)CC)C(=O)NCC(=O)N[C@@H](C)C(=O)N[C@H](C(=O)N[C@@](C)(CCCC=C)C(=O)N[C@H](C(=O)N[C@@H](C)C(=O)N[C@@H](CCCCNC(=O)OC(C)(C)C)C(=O)N[C@@H](CCSC)C(=O)N[C@H](C(N)=O)C(C)C)C(C)C)[C@@H](C)CC	14.1%

Same assay, conditions: the molecule shown is the open-chain precursor, 33-membered ring, 1,2-dichloroethane, 35.0 °C, 4.0 h, 60 steps

Compound	ring closure, overall yield
C=CCCCCCC[C@@](C)(NC(=O)[C@H](CC(=O)OC(C)(C)C)NC(=O)[C@H](CCCCNC(=O)OC(C)(C)C)NC(=O)[C@@H](NC(=O)[C@H](CCC(=O)OC(C)(C)C)NC(=O)[C@@H]1CCCN1C(=O)[C@H](COC(C)(C)C)NC(=O)[C@H](CC(C)C)NC(=O)[C@H](CCCCNC(=O)OC(C)(C)C)NC(=O)[C@@H](NC(=O)OCC1c2ccccc2-c2ccccc21)[C@@H](C)CC)[C@@H](C)OC(C)(C)C)C(=O)N[C@@H](CC(C)C)C(=O)N[C@@H](CCCCNC(=O)OC(C)(C)C)C(=O)N[C@@H](CCCCNC(=O)OC(C)(C)C)C(=O)N[C@H](C(=O)N[C@@H](CC(C)C)C(=O)N[C@@H](CCCCNC(=O)OC(C)(C)C)C(=O)N[C@@](C)(CCCC=C)C(=O)N[C@@H](C)C(=O)N[C@H](C(=O)N[C@@H](CCCCNC(=O)OC(C)(C)C)C(=O)NCC(=O)N[C@@H](C)C(=O)N[C@H](C(=O)N[C@@H](C)C(=O)N[C@H](C(=O)N[C@@H](C)C(=O)N[C@@H](CCCCNC(=O)OC(C)(C)C)C(=O)N[C@@H](CCSC)C(=O)N[C@H](C(N)=O)C(C)C)C(C)C)[C@@H](C)CC)[C@@H](C)CC)C(C)C	6.51%
C=CCCCCCC[C@@](C)(NC(=O)[C@@H](NC(=O)[C@H](C)NC(=O)CNC(=O)[C@H](CCCCNC(=O)OC(C)(C)C)NC(=O)[C@H](CC(C)C)NC(=O)[C@@H](NC(=O)[C@H](CCCCNC(=O)OC(C)(C)C)NC(=O)[C@H](CCCCNC(=O)OC(C)(C)C)NC(=O)[C@H](CC(C)C)NC(=O)[C@H](CC(=O)NC(c1ccccc1)(c1ccccc1)c1ccccc1)NC(=O)[C@H](CC(=O)OC(C)(C)C)NC(=O)[C@H](CCCCNC(=O)OC(C)(C)C)NC(=O)[C@@H](NC(=O)[C@H](CCC(=O)OC(C)(C)C)NC(=O)[C@@H]1CCCN1C(=O)[C@H](COC(C)(C)C)NC(=O)[C@H](CC(C)C)NC(=O)[C@H](CCCCNC(=O)OC(C)(C)C)NC(=O)[C@@H](NC(=O)OCC1c2ccccc2-c2ccccc21)[C@@H](C)CC)[C@@H](C)OC(C)(C)C)C(C)C)[C@@H](C)CC)C(=O)NCC(=O)N[C@@H](C)C(=O)N[C@H](C(=O)N[C@@H](C)C(=O)N[C@H](C(=O)N[C@@H](C)C(=O)N[C@@](C)(CCCC=C)C(=O)N[C@@H](CCSC)C(=O)N[C@H](C(N)=O)C(C)C)C(C)C)[C@@H](C)CC	7.25%
